{"source": "patent US10689383B2", "about": "“Optionally fused heterocyclyl-substituted derivatives of pyrimidine useful for the treatment of inflammatory, metabolic, oncologic and autoimmune diseases” (NUEVOLUTION A/S, priority 2014, dated 2020)", "data": [{"molecular_target": "T1, human RORγt (Ligand Binding Domain) (Homo sapiens, UniProt P51449)", "T1 construct": "purchased Crelux (Planegg, Germany) batch no PC5032-1", "T1 sequence (P51449 269-508 limits assumed)": "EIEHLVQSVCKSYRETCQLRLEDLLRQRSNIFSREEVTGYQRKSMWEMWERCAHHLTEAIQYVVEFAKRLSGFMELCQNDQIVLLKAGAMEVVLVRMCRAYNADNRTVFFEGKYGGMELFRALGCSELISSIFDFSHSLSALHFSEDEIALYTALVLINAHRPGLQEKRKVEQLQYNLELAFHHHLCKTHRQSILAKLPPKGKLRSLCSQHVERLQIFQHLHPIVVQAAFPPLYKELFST", "assay": "Fluorescence Polarization (FP) Assay", "conditions": "Fluorescence Polarization (FP) Assay; values given as upper bounds of activity ranges; read-out: FP activity range", "description": "The activity of the compounds was evaluated using a Fluorescence Polarization (FP) Assay and, in most cases, a Th17 Assay and/or RORγ Reporter assay (also referred to as Gal4 assay). The FP assay is an in vitro assay monitoring binding within the ligand binding pocket. The RORγ and the Th17 assays are both cell-based assays monitoring functional activity of the compound assayed.\nThe total volume was 25 μl, in a black Perkin Elmer OptiPlate. As negative control, 1 μl DMSO was used. […] The probe is a fluorescently labeled (TAMRA) RORγt ligand identified by Nuevolution with a total molecular weight of 910 g/mole as shown in Graph A in FIG. 1.", "units": {"IC50": "µM"}, "values": [{"smiles": "O=C(O)Cc1ccc(CNc2ncnc(N3CCCC3c3ccc(C(F)(F)F)cc3)c2F)cc1", "note": "(stereo not drawn) [Example 32, 2-[4-[[[5-fluoro-6-[2-[4-(trifluoromethyl)phenyl]pyrrolidin-1-yl]pyrimidin-4-yl]amino]methyl]phenyl]acetic acid]", "IC50": "< 0.5"}, {"smiles": "CC(C)C[C@@H](Nc1ncnc(N2CC(C)CC2c2ccc(C(F)(F)F)cc2)c1F)C(N)=O", "note": "(stereo partly drawn) [Example 34, (2R)-2-[[5-fluoro-6-[4-methyl-2-[4-(trifluoromethyl)phenyl]pyrrolidin-1-yl]pyrimidin-4-yl]amino]-4-methyl-pentanamide]", "IC50": "< 1"}, {"smiles": "CC1CC(c2ccc(C(F)(F)F)cc2)N(c2ncnc(N[C@H](Cc3ccc(F)cc3)C(N)=O)c2F)C1", "note": "(stereo partly drawn) [Example 37, (2R)-2-[[5-fluoro-6-[4-methyl-2-[4-(trifluoromethyl)phenyl]pyrrolidin-1-yl]pyrimidin-4-yl]amino]-3-(4-fluorophenyl)propanamide]", "IC50": "< 1"}, {"smiles": "CC(CC1CCOCC1)Nc1ncnc(N2CCCC2c2ccc(C(F)(F)F)cc2)c1F", "note": "(stereo not drawn) [Example 41, 5-fluoro-N-(1-methyl-2-tetrahydropyran-4-yl-ethyl)-6-[2-[4-(trifluoromethyl)phenyl]pyrrolidin-1-yl]pyrimidin-4-amine]", "IC50": "< 2"}, {"smiles": "O=C(O)c1ccc(CNc2ncnc(N3CCCC3c3ccc(C(F)(F)F)cc3)c2F)cc1", "note": "(stereo not drawn) [Example 44, 4-[[[5-fluoro-6-[2-[4-(trifluoromethyl)phenyl]pyrrolidin-1-yl]pyrimidin-4-yl]amino]methyl]benzoic acid]", "IC50": "< 10"}, {"smiles": "CC1(C)NC(=O)N(Cc2ccc(CNc3ncnc(N4CCCC4c4ccc(C(F)(F)F)cc4)c3F)cc2)C1=O", "note": "(stereo not drawn) [Example 45, 3-[[4-[[[5-fluoro-6-[2-[4-(trifluoromethyl)phenyl]pyrrolidin-1-yl]pyrimidin-4-yl]amino]methyl]phenyl]methyl]-5,5-dimethyl-imidazolidine-2,4-dione]", "IC50": "< 10"}, {"smiles": "NS(=O)(=O)Cc1ccc(CNc2ncnc(N3CCCC3c3ccc(C(F)(F)F)cc3)c2F)cc1", "note": "(stereo not drawn) [Example 46, [4-[[[5-fluoro-6-[2-[4-(trifluoromethyl)phenyl]pyrrolidin-1-yl]pyrimidin-4-yl]amino]methyl]phenyl]methane-sulfonamide]", "IC50": "< 1"}, {"smiles": "Fc1c(NCc2ccc(C(F)(F)F)cc2)ncnc1N1CCCC1c1ccc(C(F)(F)F)cc1", "note": "(stereo not drawn) [Example 48, 5-fluoro-N-[[4-(trifluoromethyl)phenyl]methyl]-6-[2-[4-(trifluoromethyl)phenyl]pyrrolidin-1-yl]pyrimidin-4-amine]", "IC50": "< 2"}, {"smiles": "CCC(Nc1ncnc(N2CCCC2c2ccc(C(F)(F)F)cc2)c1F)c1ccc2c(c1)OCCCO2", "note": "(stereo not drawn) [Example 55, N-[1-(3,4-dihydro-2H-1,5-benzodioxepin-7-yl)propyl]-5-fluoro-6-[2-[4-(trifluoromethyl)phenyl]pyrrolidin-1-yl]pyrimidin-4-amine]", "IC50": "< 10"}, {"smiles": "O=C(c1ccc(CNc2ncnc(N3CCCC3c3ccc(C(F)(F)F)cc3)c2F)cc1)N1CCOCC1", "note": "(stereo not drawn) [Example 57, [4-[[[5-fluoro-6-[2-[4-(trifluoromethyl)phenyl]pyrrolidin-1-yl]pyrimidin-4-yl]amino]methyl]phenyl]-morpholino-methanone]", "IC50": "< 10"}, {"smiles": "OCC1CCN(c2ccc(CNc3ncnc(N4CCCC4c4ccc(C(F)(F)F)cc4)c3F)cn2)CC1", "note": "(stereo not drawn) [Example 58, [1-[5-[[[5-fluoro-6-[2-[4-(trifluoromethyl)phenyl]pyrrolidin-1-yl]pyrimidin-4-yl]amino]methyl]-2-pyridyl]-4-piperidyl]methanol]", "IC50": "< 10"}, {"smiles": "Fc1c(NCc2ccc(OCC3CCCO3)cc2)ncnc1N1CCCC1c1ccc(C(F)(F)F)cc1", "note": "(stereo not drawn) [Example 59, 5-fluoro-N-[[4-(tetrahydrofuran-2-ylmethoxy)phenyl]methyl]-6-[2-[4-(trifluoromethyl)phenyl]pyrrolidin-1-yl]pyrimidin-4-amine]", "IC50": "< 10"}, {"smiles": "NC(=O)C1CCCN(c2ccc(CNc3ncnc(N4CCCC4c4ccc(C(F)(F)F)cc4)c3F)cc2)C1", "note": "(stereo not drawn) [Example 61, 1-[4-[[[5-fluoro-6-[2-[4-(trifluoromethyl)phenyl]pyrrolidin-1-yl]pyrimidin-4-yl]amino]methyl]phenyl]piperidine-3-carboxamide]", "IC50": "< 10"}, {"smiles": "COC(=O)Cc1ccc(CNc2ncnc(N3CCCC3c3ccc(C(F)(F)F)cc3)c2F)cc1", "note": "(stereo not drawn) [Example 70, methyl 2-[4-[[[5-fluoro-6-[2-[4-(trifluoromethyl)phenyl]pyrrolidin-1-yl]pyrimidin-4-yl]amino]methyl]phenyl]acetate]", "IC50": "< 2"}, {"smiles": "CC(=O)N1CCOC([C@@H](CC(C)(C)C)Nc2ncnc(N3CCCC3c3ccc(C(F)(F)F)cc3)c2F)C1", "note": "(stereo partly drawn) [Example 71, 1-[2-[(1R)-1-[[5-fluoro-6-[2-[4-(trifluoromethyl)phenyl]pyrrolidin-1-yl]pyrimidin-4-yl]amino]-3,3-dimethyl-butyl]morpholin-4-yl]ethanone]", "IC50": "< 10"}, {"smiles": "Cn1ccc(CNc2ncnc(N3CCCC3c3ccc(C(F)(F)F)cc3)c2F)c1", "note": "(stereo not drawn) [Example 105, 5-fluoro-N-[(1-methylpyrrol-3-yl)methyl]-6-[2-[4-(trifluoromethyl)phenyl]pyrrolidin-1-yl]pyrimidin-4-amine]", "IC50": "< 10"}, {"smiles": "O=C1CCC(CNc2ncnc(N3CCCC3c3ccc(C(F)(F)F)cc3)c2F)N1", "note": "(stereo not drawn) [Example 108, 5-[[[5-fluoro-6-[2-[4-(trifluoromethyl)phenyl]pyrrolidin-1-yl]pyrimidin-4-yl]amino]methyl]pyrrolidin-2-one]", "IC50": "< 10"}, {"smiles": "O=C(O)c1ccc(CCNc2ncnc(N3CCCC3c3ccc(C(F)(F)F)cc3)c2F)cc1", "note": "(stereo not drawn) [Example 120, 4-[2-[[5-fluoro-6-[2-[4-(trifluoromethyl)phenyl]pyrrolidin-1-yl]pyrimidin-4-yl]amino]ethyl]benzoic acid]", "IC50": "< 10"}, {"smiles": "O=C1Cc2cc(CNc3ncnc(N4CCCC4c4ccc(C(F)(F)F)cc4)c3F)ccc2N1", "note": "(stereo not drawn) [Example 122, 5-[[[5-fluoro-6-[2-[4-(trifluoromethyl)phenyl]pyrrolidin-1-yl]pyrimidin-4-yl]amino]methyl]indolin-2-one]", "IC50": "< 10"}, {"smiles": "O=C1CC(CNc2ncnc(N3CCCC3c3ccc(C(F)(F)F)cc3)c2F)CN1C1CCCC1", "note": "(stereo not drawn) [Example 130, 1-cyclopentyl-4-[[[5-fluoro-6-[2-[4-(trifluoromethyl)phenyl]pyrrolidin-1-yl]pyrimidin-4-yl]amino]methyl]pyrrolidin-2-one]", "IC50": "< 10"}, {"smiles": "Cc1cccc(CNc2ncnc(N3CCCC3c3ccc(C(F)(F)F)cc3)c2F)n1", "note": "(stereo not drawn) [Example 132, 5-fluoro-N-[(6-methyl-2-pyridyl)methyl]-6-[2-[4-(trifluoromethyl)phenyl]pyrrolidin-1-yl]pyrimidin-4-amine]", "IC50": "< 10"}, {"smiles": "O=C1CC2(CCCN(c3ncnc(N4CCCC4c4ccc(C(F)(F)F)cc4)c3F)C2)CN1", "note": "(stereo not drawn) [Example 134, 9-[5-fluoro-6-[2-[4-(trifluoromethyl)phenyl]pyrrolidin-1-yl]pyrimidin-4-yl]-3,9-diazaspiro[4.5]decan-2-one]", "IC50": "< 10"}, {"smiles": "CN1CC(CN(C)c2ncnc(N3CCCC3c3ccc(C(F)(F)F)cc3)c2F)CC1=O", "note": "(stereo not drawn) [Example 135, 4-[[[5-fluoro-6-[2-[4-(trifluoromethyl)phenyl]pyrrolidin-1-yl]pyrimidin-4-yl]-methyl-amino]methyl]-1-methyl-pyrrolidin-2-one]", "IC50": "< 10"}, {"smiles": "CCc1ccc(CN(C)c2ncnc(N3CCCC3c3ccc(C(F)(F)F)cc3)c2F)nc1", "note": "(stereo not drawn) [Example 136, N-[(5-ethyl-2-pyridyl)methyl]-5-fluoro-N-methyl-6-[2-[4-(trifluoromethyl)phenyl]pyrrolidin-1-yl]pyrimidin-4-amine]", "IC50": "< 2"}, {"smiles": "O=C1CCCN1c1ccc(CNc2ncnc(N3CCCC3c3ccc(C(F)(F)F)cc3)c2F)cc1", "note": "(stereo not drawn) [Example 137, 1-[4-[[[5-fluoro-6-[2-[4-(trifluoromethyl)phenyl]pyrrolidin-1-yl]pyrimidin-4-yl]amino]methyl]phenyl]pyrrolidin-2-one]", "IC50": "< 10"}, {"smiles": "Fc1c(NCc2ccc(-c3nnn[nH]3)cc2)ncnc1N1CCCC1c1ccc(C(F)(F)F)cc1", "note": "(stereo not drawn) [Example 138, 5-fluoro-N-[[4-(1H-tetrazol-5-yl)phenyl]methyl]-6-[2-[4-(trifluoromethyl)phenyl]pyrrolidin-1-yl]pyrimidin-4-amine]", "IC50": "< 0.5"}, {"smiles": "Fc1c(NCc2ccccc2)ncnc1N1CCCC1c1ccc(C(F)(F)F)cc1", "note": "(stereo not drawn) [Example 139, N-benzyl-5-fluoro-6-[2-[4-(trifluoromethyl)phenyl]pyrrolidin-1-yl]pyrimidin-4-amine]", "IC50": "< 2"}, {"smiles": "Fc1c(NCc2cccnc2)ncnc1N1CCCC1c1ccc(C(F)(F)F)cc1", "note": "(stereo not drawn) [Example 141, 5-fluoro-N-(3-pyridylmethyl)-6-[2-[4-(trifluoromethyl)phenyl]pyrrolidin-1-yl]pyrimidin-4-amine]", "IC50": "< 2"}, {"smiles": "COc1cc(CNc2ncnc(N3CCCC3c3ccc(C(F)(F)F)cc3)c2F)cc(OC)c1", "note": "(stereo not drawn) [Example 142, N-[(3,5-dimethoxyphenyl)methyl]-5-fluoro-6-[2-[4-(trifluoromethyl)phenyl]pyrrolidin-1-yl]pyrimidin-4-amine]", "IC50": "< 2"}, {"smiles": "O=C1CCCN1c1cccc(CNc2ncnc(N3CCCC3c3ccc(C(F)(F)F)cc3)c2F)c1", "note": "(stereo not drawn) [Example 143, 1-[3-[[[5-fluoro-6-[2-[4-(trifluoromethyl)phenyl]pyrrolidin-1-yl]pyrimidin-4-yl]amino]methyl]phenyl]pyrrolidin-2-one]", "IC50": "< 2"}]}]}
